{
  "source": "patent US12365665B2",
  "about": "“Solid form of diaminopyrimidine compound or hydrate thereof, preparation method therefor, and application thereof” (BEIJING TIDE PHARMACEUTICAL CO., LTD., priority 2020, dated 2025)",
  "type_in_all_cases": "physicochemical",
  "key": {"[1]": {"assay": "High humidity stability test (XRPD)", "conditions": "92.5% RH/25° C., after 5, 10 and 30 days", "protocol": "(§1) The detection instruments and conditions used in the following examples are as follows: • (1) X-Ray Powder Diffraction (XRPD) • Instrument Model: Bruker D8 advance, equipped with a LynxEye detector • Test conditions: the anode target material was copper, the light pipe was set to (40 KV 40 mA), the 2θ scan angle for the sample was from 3° to 40°, and scan step was 0.02°. • (2) Differential Scanning Calorimetry Analysis (DSC) • Instrument Model: TA Discovery DSC 250 (TA Instruments, US) • Test conditions: the heating rate was 10° C./min, and dry nitrogen was used as the purge gas. • (3) Thermogravimetric Analysis (TGA) • Instrument Model: Discovery TGA 55 (TA Instruments, US) • Test conditions: automatic weighing in the heating furnace, the heating rate was 10° C./min, and dry nitrogen was used as the purge gas. • (4) Polarizing Microscope Analysis (PLM) • Instrument Model: Polarizing Microscope ECLIPSE LV100POL (Nikon, JPN)\nThe stability of the crystalline form I prepared in Example 2 was investigated under a condition of 92.5% RH/25° C., and the XRPD pattern was measured with a Bruker D8 advance X-ray powder diffractometer (see FIG. 20)."}, "[2]": {"assay": "High temperature stability test (XRPD)", "conditions": "60° C.", "protocol": "as §1\nThe stability of the crystalline form I prepared in Example 2 was investigated at 60° C., and the XRPD pattern was measured with a Bruker D8 advance X-ray powder diffractometer (see FIG. 19)."}, "[3]": {"assay": "Room temperature stability test (XRPD before and after storage)", "conditions": "sealed in medicinal low-density polyethylene bag, 180 days", "protocol": "as §1, with “JPN) […]” for “JPN)”"}, "[4]": {"assay": "Physical grinding stability test (XRPD)", "conditions": "physically ground for 2 minutes", "protocol": "as §1\nThe crystalline form I prepared in Example 2 was physically ground for 2 minutes, and then the XRPD pattern was measured with a Bruker D8 advance X-ray powder diffractometer (see FIG. 21)."}},
  "data": [
    {"smiles": "C#Cc1cc(Oc2cnc(N)nc2N)c(C(C)C)cn1", "note": "[crystalline form I, 5-((2-ethynyl-5-isopropylpyridin-4-yl)oxy)pyrimidine-2,4-diamine]", "values": [
      {"measurement": "change in the crystalline form (XRPD) at high humidity", "setting": "[1]", "value": "no change in the crystalline form"},
      {"measurement": "change in the crystalline form after storage under a high temperature condition (summary statement)", "setting": "[2]; 30 days", "value": "its crystalline form did not change"},
      {"measurement": "change in the crystalline form (XRPD) at high temperature", "setting": "[2]; after 5, 10 and 30 days", "value": "no change in the crystalline form"},
      {"measurement": "change in the crystalline form (XRPD) after storage at room temperature", "setting": "[3]", "value": "no change in the crystalline form"},
      {"measurement": "change in the crystalline form (XRPD) after physical grinding", "setting": "[4]", "value": "no change in the crystalline form"}
    ]}
  ]
}
